Results from patent US12391679B2, “Benzamide-substituted bicyclic imidazo- and pyrazolo-fused -pyridine, -pyrimide, and -pyridazine compounds for treatment of inflammatory diseases” (ONCO3R Therapeutics BV, priority 2019, dated 2025).

Columns and labels:
Format in all cases: biochemical
SIK1 = target: T1, SIK1 (Homo sapiens, UniProt P57059); test: ADP-Glo kinase assay, SIK1
T1 construct: purchased Carna Biosciences 02-131
Description: (§1) The ADP-Glo™ kinase assay is a luminescent technology assay which measures the ADP formed from a kinase reaction. […] In a second step the kinase reactions are terminated and all the remaining ATP is depleted. In a final step the ADP is converted into ATP and this newly synthesized ATP is measured by using a luciferase/luciferin reaction. The generated light is measured using an Envision plate reader, wherein the luminescent signal obtained positively correlates with the kinase activity.
(§2) 1% DMSO and 10 μM staurosporine final concentrations are used as negative and positive controls.
(§3) 2 μL enzyme-substrate mixture is added to the assay plates.
(§4) The reaction is started by adding 2 μL diluted ATP on the assay plates. Plates are centrifuged for a few seconds at 1000 rpm and gently shaken for […] followed by an incubation at RT for 120 min.
(§5) The reactions are stopped and the unconsumed ATP is depleted by adding 5 μL ADP-Glo Reagent (Promega, Cat #V9120) to the reaction. The plates are centrifuged for a few seconds at 1000 rpm and incubated at RT for 40 min (ATP depletion).
(§6) The ADP is converted to ATP and luciferase and luciferin is introduced to detect ATP by adding 10 μL Kinase Detection Reagent (Promega, Cat #V913B+V914r) to the reaction. The plates are centrifuged for a few seconds at 1000 rpm and incubated at RT for 30 min (ADP detection).
(§7) Luminescence is measured on an Envision plate reader (PerkinElmer Inc.).

SIK2 = target: T2, SIK2 (Homo sapiens, UniProt Q9H0K1); test: ADP-Glo kinase assay, SIK2
T2 construct: purchased ThermoFisher Scientific PV4792
Description: as §1, §2, §3, §4, §5, §6, §7

SIK3 = target: T3, SIK3 (Homo sapiens, UniProt Q9Y2K2); test: ADP-Glo kinase assay, SIK3
T3 construct: purchased SignalChem S12-11G-100
Description: as §1, §2, §3, §4, §5, §6, §7

T1 sequence (P57059 whole entry): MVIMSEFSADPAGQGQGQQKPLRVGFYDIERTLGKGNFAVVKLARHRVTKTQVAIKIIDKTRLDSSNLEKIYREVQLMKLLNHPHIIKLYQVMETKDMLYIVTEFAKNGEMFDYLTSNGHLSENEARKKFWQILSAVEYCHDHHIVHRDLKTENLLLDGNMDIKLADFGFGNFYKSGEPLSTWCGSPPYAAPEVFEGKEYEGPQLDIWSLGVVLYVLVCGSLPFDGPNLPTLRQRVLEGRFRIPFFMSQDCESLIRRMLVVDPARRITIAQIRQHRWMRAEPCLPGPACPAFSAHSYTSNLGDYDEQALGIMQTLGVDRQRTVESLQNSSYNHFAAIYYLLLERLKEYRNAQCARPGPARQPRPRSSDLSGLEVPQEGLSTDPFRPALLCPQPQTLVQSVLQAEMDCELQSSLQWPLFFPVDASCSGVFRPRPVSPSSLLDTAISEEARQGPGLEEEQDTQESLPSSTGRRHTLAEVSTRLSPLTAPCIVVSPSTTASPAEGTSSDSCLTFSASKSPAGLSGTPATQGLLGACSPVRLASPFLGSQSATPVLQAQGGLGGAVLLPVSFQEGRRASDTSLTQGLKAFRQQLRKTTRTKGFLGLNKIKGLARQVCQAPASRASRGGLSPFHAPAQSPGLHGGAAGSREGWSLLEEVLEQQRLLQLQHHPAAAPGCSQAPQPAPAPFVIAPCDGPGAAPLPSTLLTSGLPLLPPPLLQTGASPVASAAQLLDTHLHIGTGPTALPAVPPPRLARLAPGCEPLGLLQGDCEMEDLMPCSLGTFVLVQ
T3 sequence (Q9Y2K2 59-365 limits assumed): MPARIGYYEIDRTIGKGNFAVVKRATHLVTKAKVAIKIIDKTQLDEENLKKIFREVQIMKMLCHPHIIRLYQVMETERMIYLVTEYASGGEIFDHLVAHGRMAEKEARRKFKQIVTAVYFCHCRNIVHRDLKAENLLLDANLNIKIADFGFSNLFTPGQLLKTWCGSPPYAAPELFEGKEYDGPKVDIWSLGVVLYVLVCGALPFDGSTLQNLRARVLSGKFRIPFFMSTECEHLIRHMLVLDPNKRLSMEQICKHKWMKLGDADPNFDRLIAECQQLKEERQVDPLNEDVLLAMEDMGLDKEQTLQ
T2 sequence (Q9H0K1 whole entry): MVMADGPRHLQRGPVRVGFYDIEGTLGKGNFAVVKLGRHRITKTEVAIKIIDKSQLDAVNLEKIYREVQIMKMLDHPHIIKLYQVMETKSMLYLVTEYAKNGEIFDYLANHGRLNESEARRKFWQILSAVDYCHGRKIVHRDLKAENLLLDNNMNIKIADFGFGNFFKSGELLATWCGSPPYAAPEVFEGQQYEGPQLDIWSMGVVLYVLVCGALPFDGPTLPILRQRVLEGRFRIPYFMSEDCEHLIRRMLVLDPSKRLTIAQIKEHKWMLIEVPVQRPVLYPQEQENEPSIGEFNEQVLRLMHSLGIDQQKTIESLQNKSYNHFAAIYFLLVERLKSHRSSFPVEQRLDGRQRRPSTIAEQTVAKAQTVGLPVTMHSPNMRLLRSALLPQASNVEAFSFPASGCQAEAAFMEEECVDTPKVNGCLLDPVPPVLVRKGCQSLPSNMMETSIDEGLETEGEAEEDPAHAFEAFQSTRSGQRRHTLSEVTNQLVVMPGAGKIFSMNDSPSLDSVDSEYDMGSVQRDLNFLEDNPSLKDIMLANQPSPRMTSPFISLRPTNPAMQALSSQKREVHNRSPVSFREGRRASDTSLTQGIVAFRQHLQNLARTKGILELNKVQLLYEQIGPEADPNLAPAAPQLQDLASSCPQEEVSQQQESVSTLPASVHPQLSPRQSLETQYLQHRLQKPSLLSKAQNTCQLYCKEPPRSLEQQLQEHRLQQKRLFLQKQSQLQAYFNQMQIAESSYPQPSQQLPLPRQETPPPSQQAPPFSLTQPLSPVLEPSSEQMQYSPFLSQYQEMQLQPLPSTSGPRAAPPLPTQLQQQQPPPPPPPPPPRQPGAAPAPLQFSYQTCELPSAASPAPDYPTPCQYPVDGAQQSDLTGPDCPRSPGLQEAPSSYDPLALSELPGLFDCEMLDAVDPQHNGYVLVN

| Compound | IC50 (SIK1) [nM] | IC50 (SIK2) [nM] | IC50 (SIK3) [nM] |
| --- | --- | --- | --- |
| COc1cc(-c2cnc3cc(C(C)(C)C#N)ccn23)cc(OC(F)F)c1C(=O)NC(C)C(F)F (stereo not drawn) [Cpd 71, 4-[7-(1-cyano-1-methyl-ethyl)imidazo[1,2-a]pyridin-3-yl]-2-(difluoromethoxy)-N-(2,2-difluoro-1-methyl-ethyl)-6-methoxy-benzamide] | > 500 | > 500 | 10 to 100 |
| COc1cc(-c2cnc3cc(C(C)(C)C#N)ccn23)cc(OC(F)F)c1C(=O)NCC(C)C [Cpd 72, 4-[7-(1-cyano-1-methyl-ethyl)imidazo[1,2-a]pyridin-3-yl]-2-(difluoromethoxy)-N-isobutyl-6-methoxy-benzamide] | > 500 | > 500 | 10 to 100 |
| COc1cc(-c2cnc3cc(C(C)(C)C#N)ccn23)cc(OC(F)F)c1C(=O)N1CC(O)(C(F)(F)F)C1 [Cpd 75, 2-[3-[3-(difluoromethoxy)-4-[3-hydroxy-3-(trifluoromethyl)azetidine-1-carbonyl]-5-methoxy-phenyl]imidazo[1,2-a]pyridin-7-yl]-2-methyl-propanenitrile] | > 500 | 100 to 500 | 0.01 to 10 |
| COc1cc(-c2cnc3cc(C(C)(C)C#N)ccn23)cc(OC(F)F)c1C(=O)N1CC(C(F)(F)F)C1 [Cpd 76, 2-[3-[3-(difluoromethoxy)-5-methoxy-4-[3-(trifluoromethyl)azetidine-1-carbonyl]phenyl]imidazo[1,2-a]pyridin-7-yl]-2-methyl-propanenitrile] | > 500 | 100 to 500 | 0.01 to 10 |
| COc1cc(-c2cnc3cc(C(C)(C)C#N)ccn23)cc(OC(F)F)c1C(=O)NC(C)C [Cpd 78, 4-[7-(1-cyano-1-methyl-ethyl)imidazo[1,2-a]pyridin-3-yl]-2-(difluoromethoxy)-N-isopropyl-6-methoxy-benzamide] | > 500 | > 500 | 10 to 100 |
| COc1cc(-c2cnc3cc(C(C)(C)C#N)ccn23)cc(OC(F)F)c1C(=O)NC1(C(C)C)CC1 [Cpd 80, 4-[7-(1-cyano-1-methyl-ethyl)imidazo[1,2-a]pyridin-3-yl]-2-(difluoromethoxy)-N-(1-isopropylcyclopropyl)-6-methoxy-benzamide] | > 500 | > 500 | > 500 |
| COCC1(NC(=O)c2c(OC)cc(-c3cnc4cc(C(C)(C)C#N)ccn34)cc2OC(F)F)CC1 [Cpd 81, 4-[7-(1-cyano-1-methyl-ethyl)imidazo[1,2-a]pyridin-3-yl]-2-(difluoromethoxy)-6-methoxy-N-[1-(methoxymethyl)cyclopropyl]benzamide] | > 500 | > 500 | > 500 |
| CCC1(NC(=O)c2c(OC)cc(-c3cnc4cc(C(C)(C)C#N)ccn34)cc2OC(F)F)CC1 [Cpd 83, 4-[7-(1-cyano-1-methyl-ethyl)imidazo[1,2-a]pyridin-3-yl]-2-(difluoromethoxy)-N-(1-ethylcyclopropyl)-6-methoxy-benzamide] | > 500 | > 500 | > 500 |
| C#CC1(O)CN(C(=O)c2c(OC)cc(-c3cnc4cc(C(C)(C)C#N)ccn34)cc2OC(F)F)C1 [Cpd 89, 2-[3-[3-(difluoromethoxy)-4-(3-ethynyl-3-hydroxy-azetidine-1-carbonyl)-5-methoxy-phenyl]imidazo[1,2-a]pyridin-7-yl]-2-methyl-propanenitrile] | > 500 | > 500 | 10 to 100 |

Now from value to compound:

| IC50 (SIK1) [nM] | IC50 (SIK2) [nM] | IC50 (SIK3) [nM] | Compound |
| --- | --- | --- | --- |
| > 500 | 10 to 100 | 10 to 100 | COc1cc(-c2cnc3cc(C4CCNCC4)ccn23)cc(OC(F)F)c1C(=O)NC1CC1 [Cpd 66, N-cyclopropyl-2-(difluoromethoxy)-6-methoxy-4-[7-(4-piperidyl)imidazo[1,2-a]pyridin-3-yl]benzamide] |
| > 500 | > 500 | 10 to 100 | COc1cc(-c2cnc3cc(C(C)(C)C#N)ccn23)cc(OC(F)F)c1C(=O)NC1CS(=O)(=O)C1 [Cpd 73, 4-[7-(1-cyano-1-methyl-ethyl)imidazo[1,2-a]pyridin-3-yl]-2-(difluoromethoxy)-N-(1,1-dioxothietan-3-yl)-6-methoxy-benzamide] |
| > 500 | > 500 | 10 to 100 | COc1cc(-c2cnc3cc(C(C)(C)C#N)ccn23)cc(OC(F)F)c1C(=O)N1CC(O)(C2CC2)C1 [Cpd 74, 2-[3-[4-(3-cyclopropyl-3-hydroxy-azetidine-1-carbonyl)-3-(difluoromethoxy)-5-methoxy-phenyl]imidazo[1,2-a]pyridin-7-yl]-2-methyl-propanenitrile] |
| > 500 | > 500 | > 500 | COc1cc(-c2cnc3cc(C(C)(C)C#N)ccn23)cc(OC(F)F)c1C(=O)N(C)CC1CC1 [Cpd 82, 4-[7-(1-cyano-1-methyl-ethyl)imidazo[1,2-a]pyridin-3-yl]-N-(cyclopropylmethyl)-2-(difluoromethoxy)-6-methoxy-N-methyl-benzamide] |
| > 500 | > 500 | 100 to 500 | COc1cc(-c2cnc3cc(C(C)(C)C#N)ccn23)cc(OC(F)F)c1C(=O)N(C)C1CC1 [Cpd 84, 4-[7-(1-cyano-1-methyl-ethyl)imidazo[1,2-a]pyridin-3-yl]-N-cyclopropyl-2-(difluoromethoxy)-6-methoxy-N-methyl-benzamide] |
| > 500 | > 500 | 100 to 500 | COc1cc(-c2cnc3cc(C(C)(C)C#N)ccn23)cc(OC(F)F)c1C(=O)NCC1CCOC1 (stereo not drawn) [Cpd 85, 4-[7-(1-cyano-1-methyl-ethyl)imidazo[1,2-a]pyridin-3-yl]-2-(difluoromethoxy)-6-methoxy-N-(tetrahydrofuran-3-ylmethyl)benzamide] |
| > 500 | > 500 | 10 to 100 | COc1cc(-c2cnc3cc(C(C)(C)C#N)ccn23)cc(OC(F)F)c1C(=O)NC1CCOC1 (stereo not drawn) [Cpd 86, 4-[7-(1-cyano-1-methyl-ethyl)imidazo[1,2-a]pyridin-3-yl]-2-(difluoromethoxy)-6-methoxy-N-tetrahydrofuran-3-yl-benzamide] |
| > 500 | > 500 | > 500 | COc1cc(-c2cnc3cc(C(C)(C)C#N)ccn23)cc(OC(F)F)c1C(=O)NC(CO)C1CC1 (stereo not drawn) [Cpd 87, 4-[7-(1-cyano-1-methyl-ethyl)imidazo[1,2-a]pyridin-3-yl]-N-(1-cyclopropyl-2-hydroxy-ethyl)-2-(difluoromethoxy)-6-methoxy-benzamide] |
| > 500 | > 500 | 10 to 100 | COc1cc(-c2cnc3cc(C(C)(C)C#N)ccn23)cc(OC(F)F)c1C(=O)NC1CC(F)(F)C1 [Cpd 88, 4-[7-(1-cyano-1-methyl-ethyl)imidazo[1,2-a]pyridin-3-yl]-N-(3,3-difluorocyclobutyl)-2-(difluoromethoxy)-6-methoxy-benzamide] |
| > 500 | > 500 | 10 to 100 | COc1cc(-c2cnc3cc(C(C)(C)C#N)ccn23)cc(OC(F)F)c1C(=O)NCC1CCC1 [Cpd 90, 4-[7-(1-cyano-1-methyl-ethyl)imidazo[1,2-a]pyridin-3-yl]-N-(cyclobutylmethyl)-2-(difluoromethoxy)-6-methoxy-benzamide] |
| > 500 | 100 to 500 | 10 to 100 | COc1cc(-c2cnc3cc(C4CN(C)C4)ccn23)cc(OC(F)F)c1C(=O)NC1CC1 [Cpd 91, N-cyclopropyl-2-(difluoromethoxy)-6-methoxy-4-[7-(1-methylazetidin-3-yl)imidazo[1,2-a]pyridin-3-yl]benzamide] |
